# Legend:
# Type in all cases: cell-based, human
# [1] = tested on: ITGB1; assay: RT-qPCR expression of aging-related gene ITGB1 in HDFa; conditions: 0.05 mg/mL, 6 h
# Method: (§3) Then, cells were lysed, and RNA was extracted (RNeasy mini kit, Qiagen). Purified RNAs were retro-transcribed (High-capacity cDNA reverse transcription kit, Applied Biosystems). RT-qPCR was performed with the panel of TaqMan assay probes (Thermo Fisher Scientific) using StepOne plus Real time PCR instrument. […] The obtained data were analyzed using the ΔΔCt method, which provides the target gene expression values as fold changes in the treated sample compared with an untreated basal sample. Both samples were normalized with the relative expression of the housekeeping gene GAPDH.
# [2] = tested on: Caspase 3 (CASP3); assay: Caspase 3 activity under BFA-induced endoplasmic reticulum stress in HEKa (Caspase-Glo 3/7); conditions: BFA-induced ER stress, 24 h, vs BFA-treated cells (Figure 5)
# Method: Caspase 3 (CASP3) is a protein member of the cysteine-aspartic acid protease family. Sequential activation of caspases plays a central role in the execution-phase of cell apoptosis. It was evaluated the effect of the cycled peptide B on the caspase 3 activity in human epidermal keratinocytes from adult (HEKa) subjected to endoplasmic reticulum (ER) stress.
# HEKa cells were seeded in a black 96-well plate at a density of 18.000 cell/well in Dermal Cell Basal Medium (DCBM) and incubated at 37 °C in a humidified atmosphere with 5% CO2. After 24 h of incubation, cells were treated with 0.15 µg/mL BFA alone or in the presence of 0.005 mg/mL of the cycled peptide B and returned to the incubator for 24 h more. Untreated cells (Basal) were used as negative control samples. 24 hours after treatment, caspase 3 activity was evaluated using Caspase-Glo® 3/7 Assay System, following manufacturer instructions.
# Each condition was performed at least in triplicates (n=3) in three independent experiments (N=3). For all data, mean values of relative fluorescence units (RFU) of the different experiments and SEM values are shown. All data was normalized as follows: % vs BFA = (RFU treated cells)/(RFU BFA treated cells) × 100 [formula]
# Statistical data analysis was performed using Student t-test by comparison of % activity from test substance vs BFA-treated cells, *p<0.05, **p<0.01, ***p<0.001.
# [3] = tested on: Collagen I (COL1); assay: Collagen I immunostaining in HDF treated with conditioned media from peptide-treated keratinocytes; conditions: 4 days of treatment with conditioned medium from peptide-treated keratinocytes (Figure 8)
# Method: (§1) For TGFβ3 gene expression assessment, HEKa cells were seeded in 24-well plate at a density of […] and incubated at 37 °C in a humidified atmosphere with 5% CO2. Next day, cell culture media was replaced by fresh media containing 0.0025 or 0.01 mg/mL of cycled peptide B. In parallel, HDF cells were seeded on culture plates with or without coverslips (for immunofluorescence or qPCR, respectively) and incubated for 24 h.
# (§2) Conditioned media from HEKa cells after 48 hours of treatment was then transferred to HDF culture plates. Cells were maintained in culture for additional 24h (for qPCR) or for 4 days (for collagen I immunostaining).
# For the evaluation of collagen I (COLI) synthesis by immunostaining, HDF cells treated with HEKa conditioned media (as explained above) were washed twice with PBS, fixed with 4% formaldehyde and permeabilized with Triton X-100 0.2%. Next, samples were blocked for 1 hour with PBS/BSA 5%, in order to avoid nonspecific antibody binding. For collagen I staining, samples were incubated for 2 hours with Monoclonal Anti-Collagen, Type I antibody diluted 1:100 in PBS/BSA 1%, at room temperature. […] Images were analyzed using Image J software as mentioned above.
# [4] = tested on: calreticulin (CALR); assay: Calreticulin immunofluorescence quantification in HEKa; conditions: 0.005 mg/mL, 24 h
# Method: The effect of the cycled peptide on the expression of calreticulin (CALR) in human epidermal keratinocytes from adult (HEKa) was analyzed through fluorescence microscopy evaluation.
# HEKa cells were cultured on coverslips in Dermal Cell Basal Medium (DCBM) at a density of 50.000 cell/well and incubated at 37 °C in a humidified atmosphere with 5% CO2. When cell confluence was around 80%, cells were treated with cycled peptide B at 0.005 mg/mL for 24 h. After treatment, samples were washed twice with PBS, fixed with 4% formaldehyde and permeabilized with Triton X-100 0.2%. Next, samples were blocked for 1 hour with PBS/BSA 5%, in order to avoid nonspecific antibody binding. […]
# Images were analyzed using Image J software. Shortly, threshold was adjusted to select CALR staining and mean fluorescent was measured. The number of cells was counted using the DAPI staining. […] Finally, all data was normalized as follows to obtain the % of CALR compared to untreated cells (Basal): % vs Basal = (fluorescence per cell in treated samples)/(fluorescence per cell in untreated samples) × 100 [formula]
# Statistical data analysis was performed using Student t-test by comparison of % fluorescence from peptide B treated samples vs. untreated samples, (*, p < 0.05; **, p < 0.01 and ***, p < 0.001).
# [5] = tested on: ITGA5; assay: RT-qPCR expression of aging-related gene ITGA5 in HEKa; conditions: 0.01 mg/mL, 24 h
# Method: as §3
# [6] = tested on: TGFβ3; assay: qPCR TGFβ3 expression in HDF treated with conditioned media from peptide-treated keratinocytes
# Method: as §1, §2
# For qPCR, cells were lysed, RNA extracted, and gene expression for TGFβ3 target was obtained as indicated in the previous examples.
structure (smiles),measurement,setting,value
"CC(C)C[C@@H]1NC(=O)[C@H](C)NC(=O)[C@H](Cc2c[nH]cn2)NC(=O)[C@H](Cc2c[nH]c3ccccc23)NC(=O)[C@H](Cc2ccccc2)NC(=O)[C@H](CCCNC(=N)N)NC1=O [Peptide B, cyclo-Phe-Trp- His- Ala-Leu-Arg]",Fold change vs. Basal,[1],1.66
same,Mean normalized expression,[1]; normalized to GAPDH,1.02E+00
same,caspase 3 activity,[2],significantly reduce
same,Collagen I (COL1) levels,[3],significantly increased
same,"% Mean (CALR fluorescence per cell, % vs Basal)",[4],179.45%
same,increased CALR levels when compared with untreated cells,[4],up to 79%
same,Fold change vs. Basal,[5],1.84
same,Mean normalized expression,[5]; normalized to GAPDH,1.15E-01
same,expression of TGFβ3 over the basal expression in keratinocyte conditioned media (KCM),[6]; 24 h with conditioned media from HEKa treated 48 hours with 0.0025 mg/mL,1.35 fold
same,expression of TGFβ3 over the basal expression in keratinocyte conditioned media (KCM),[6]; 24 h with conditioned media from HEKa treated 48 hours with 0.01 mg/mL,1.60 fold

# From patent EP4417190A1, “CYCLIC PEPTIDES WITH ANTI-AGING EFFICACY” (Lipotrue, S.L., priority 2023, dated 2024)
